According to patent US20070027175A1, “Antineoplastic activities of ellipticine and its derivatives” (priority 2005, published 2007):
Like-named read-outs stand apart in the source and are kept apart here.

Columns and labels:
NCI-60 cancer panel = settings: average across the cell lines of the concentration at which growth is inhibited 50%; unit in the High Conc. footnote; cited from earlier work
Ark myeloma cell line = assay: CellTiter-Glo luminescent cell viability assay, Ark; type: cell-based, human; parameters: unit of the concentration uncertain
Description: (§1) The dosage of each derivative was set at 2, 0.2 and 0.02 mM. A cell culture medium control and 0.5% DMSO control was maintained in each experiment. The cell viability was tested each day over a period of five days using the CellTiter-Glo luminescent cell viability assay kit from Promega Co.
(§2) Cell Titer-Glo luminescent cell viability assay kit from Promega Co (Madison, Wis.) was used to determine cell growth inhibition by the various compounds tested. The kit determines cell viability by quantifying the amount of ATP present in the cell culture medium. Presence of ATP signals the presence of metabolically active cells (3). The intensity of luminescence was measured by a computerized luminometer (Promega, Co. Madison, Wis.). Each well was read five times within 30 minutes of adding Cell Titer-Glo reagent mixture.
(§3) Cells were contacted with the antineoplastic agents in ninety six well culture plates. The concentration of each neoplastic agent was maintained a constant. A cell culture medium control and 0.5% DMSO control were maintained in each set of experiments. The cell viability was tested every day using the CellTiter-Glo luminescent cell viability kit from Promega Co. (Madison, Wis.) for a period of five days.

CAG myeloma cell line = assay: CellTiter-Glo luminescent cell viability assay, CAG; type: cell-based, human; parameters: unit of the concentration uncertain
Description: as §1, §2, §3

[1] = tested on: RPMI8226 myeloma cell line; assay: CellTiter-Glo luminescent cell viability assay, RPMI8226; type: cell-based, human; parameters: unit of the concentration uncertain
Description: as §1
as §2, with “mixture. […]” for “mixture.”

U266 myeloma cell line = tested on: U266 myeloma cell line; parameters: cell viability (CellTiter-Glo luminescent assay): dose or concentration left out as unconfirmed; settings: U266
Description: as §1
U266 cell line was one of 12 myeloma cell lines used in screening of anti-myeloma agents. In FIG. 10A, cells were treated with 14 ellipticine derivatives (0.5 mM) obtained from the DTP; control cells were untreated. Ellipticine derivatives are coded with NSC identifiers. For 5 days, cell viability was measured every 24 hours using CellTiter-Glo Luminescent Assay. […] In FIG. 10B, U266 cells, along with six other myeloma cell lines, were co-cultured in direct contact with human fetal bone mesenchymal cells and treated with EPED3 (0.5 mM and 2 mM) or Velcade (0.5 mM); control cells were untreated. Cell proliferation was assessed by MTT assay every 24 hours for 5 days. […] Error bars indicate standard deviation.
as §2, §3

## CCCCC(=O)OC[n+]1ccc2c(C)c3[nH]c4ccc(OC)cc4c3c(C)c2c1.[I-] [NSC 637126]
NCI-60 cancer panel
  Mean GI50: −6.40 log^10 molar

## C=C1C(OC(=O)/C=C/c2ccccc2)CC(OC(C)=O)C2(C)C1CC1CC(OC(C)=O)C(C)=C(C(OC(C)=O)C2OC(C)=O)C1(C)C (stereo not shown) [NSC 636859, Cuspidatin C]
NCI-60 cancer panel
  Mean GI50: −4.46 log^10 molar

## O=C1N(c2ccc(Cl)cc2)C(=O)C2(SC=NN2Cc2ccccc2)N1c1ccc(Cl)cc1 (stereo not shown) [NSC 630740]
NCI-60 cancer panel
  Mean GI50: −4.26 log^10 molar

## Cc1cc2[nH]c3c(C#N)c(-c4ccccc4)c(N=Nc4cccc(C(F)(F)F)c4)c(=O)n3c2cc1C [NSC 699959]
NCI-60 cancer panel
  Mean GI50: −4.53 log^10 molar

## COc1ccc2[nH]c3c(C)c4cc[n+](COC(=O)c5ccccc5)cc4c(C)c3c2c1 [NSC 632620]
NCI-60 cancer panel
  Mean GI50: −6.52 log^10 molar

## CN(C)CC1CCCCCC(Br)C1=O.O=C(O)C(=O)O (stereo not shown) [NSC 130789]
NCI-60 cancer panel
  Mean GI50: −4.96 log^10 molar

## CCCCCCC(=O)OC[n+]1ccc2c(C)c3[nH]c4ccccc4c3c(C)c2c1 [NSC 637132]
NCI-60 cancer panel
  Mean GI50: −6.09 log^10 molar

## Cc1c2ccncc2c(C)c2c1[nH]c1ccccc12 [Ellipticine, 5,11-Dimethyl-6H-Pyridol[4,3]carbazole]
Ark myeloma cell line; 0.02 (unit uncertain), Day 1
  cell viability (CellTiter-Glo luminescent assay): 120,709
Ark myeloma cell line; 0.02 (unit uncertain), Day 2
  cell viability (CellTiter-Glo luminescent assay): 208,608
Ark myeloma cell line; 0.02 (unit uncertain), Day 3
  cell viability (CellTiter-Glo luminescent assay): 268,420
Ark myeloma cell line; 0.02 (unit uncertain), Day 4
  cell viability (CellTiter-Glo luminescent assay): 802,063
Ark myeloma cell line; 0.02 (unit uncertain), Day 5
  cell viability (CellTiter-Glo luminescent assay): 1,049,792
Ark myeloma cell line; 0.2 (unit uncertain), Day 1
  cell viability (CellTiter-Glo luminescent assay): 125,251
Ark myeloma cell line; 0.2 (unit uncertain), Day 2
  cell viability (CellTiter-Glo luminescent assay): 230,950
Ark myeloma cell line; 0.2 (unit uncertain), Day 3
  cell viability (CellTiter-Glo luminescent assay): 331,985
Ark myeloma cell line; 0.2 (unit uncertain), Day 4
  cell viability (CellTiter-Glo luminescent assay): 877,082
Ark myeloma cell line; 0.2 (unit uncertain), Day 5
  cell viability (CellTiter-Glo luminescent assay): 1,183,902
Ark myeloma cell line; 2 (unit uncertain), Day 1
  cell viability (CellTiter-Glo luminescent assay): 86,010
Ark myeloma cell line; 2 (unit uncertain), Day 2
  cell viability (CellTiter-Glo luminescent assay): 98,439
Ark myeloma cell line; 2 (unit uncertain), Day 3
  cell viability (CellTiter-Glo luminescent assay): 70,824
Ark myeloma cell line; 2 (unit uncertain), Day 4
  cell viability (CellTiter-Glo luminescent assay): 44,913
Ark myeloma cell line; 2 (unit uncertain), Day 5
  cell viability (CellTiter-Glo luminescent assay): 10,996
CAG myeloma cell line; 0.02 (unit uncertain), Day 1
  cell viability (CellTiter-Glo luminescent assay): 200,429
CAG myeloma cell line; 0.02 (unit uncertain), Day 2
  cell viability (CellTiter-Glo luminescent assay): 557,030
CAG myeloma cell line; 0.02 (unit uncertain), Day 3
  cell viability (CellTiter-Glo luminescent assay): 1,243,718
CAG myeloma cell line; 0.02 (unit uncertain), Day 4
  cell viability (CellTiter-Glo luminescent assay): 2,718,974
CAG myeloma cell line; 0.02 (unit uncertain), Day 5
  cell viability (CellTiter-Glo luminescent assay): 4,443,641
CAG myeloma cell line; 0.2 (unit uncertain), Day 1
  cell viability (CellTiter-Glo luminescent assay): 196,263
CAG myeloma cell line; 0.2 (unit uncertain), Day 2
  cell viability (CellTiter-Glo luminescent assay): 541,300
CAG myeloma cell line; 0.2 (unit uncertain), Day 3
  cell viability (CellTiter-Glo luminescent assay): 1,117,650
CAG myeloma cell line; 0.2 (unit uncertain), Day 4
  cell viability (CellTiter-Glo luminescent assay): 2,568,444
CAG myeloma cell line; 0.2 (unit uncertain), Day 5
  cell viability (CellTiter-Glo luminescent assay): 4,443,292
CAG myeloma cell line; 2 (unit uncertain), Day 1
  cell viability (CellTiter-Glo luminescent assay): 136,450
CAG myeloma cell line; 2 (unit uncertain), Day 2
  cell viability (CellTiter-Glo luminescent assay): 200,722
CAG myeloma cell line; 2 (unit uncertain), Day 3
  cell viability (CellTiter-Glo luminescent assay): 234,414
CAG myeloma cell line; 2 (unit uncertain), Day 4
  cell viability (CellTiter-Glo luminescent assay): 308,480
CAG myeloma cell line; 2 (unit uncertain), Day 5
  cell viability (CellTiter-Glo luminescent assay): 281,302
[1]; 0.02 (unit uncertain), Day 1
  cell viability (CellTiter-Glo luminescent assay): 110,290
[1]; 0.02 (unit uncertain), Day 2
  cell viability (CellTiter-Glo luminescent assay): 244,140
[1]; 0.02 (unit uncertain), Day 3
  cell viability (CellTiter-Glo luminescent assay): 390,151
[1]; 0.02 (unit uncertain), Day 4
  cell viability (CellTiter-Glo luminescent assay): 898,067
[1]; 0.02 (unit uncertain), Day 5
  cell viability (CellTiter-Glo luminescent assay): 966,857
[1]; 0.2 (unit uncertain), Day 1
  cell viability (CellTiter-Glo luminescent assay): 107,014
[1]; 0.2 (unit uncertain), Day 2
  cell viability (CellTiter-Glo luminescent assay): 235,145
[1]; 0.2 (unit uncertain), Day 3
  cell viability (CellTiter-Glo luminescent assay): 355,794
[1]; 0.2 (unit uncertain), Day 4
  cell viability (CellTiter-Glo luminescent assay): 774,806
[1]; 0.2 (unit uncertain), Day 5
  cell viability (CellTiter-Glo luminescent assay): 921,077
[1]; 2 (unit uncertain), Day 1
  cell viability (CellTiter-Glo luminescent assay): 87,440
[1]; 2 (unit uncertain), Day 2
  cell viability (CellTiter-Glo luminescent assay): 115,263
[1]; 2 (unit uncertain), Day 3
  cell viability (CellTiter-Glo luminescent assay): 110,776
[1]; 2 (unit uncertain), Day 4
  cell viability (CellTiter-Glo luminescent assay): 126,944
[1]; 2 (unit uncertain), Day 5
  cell viability (CellTiter-Glo luminescent assay): 85,699
U266 myeloma cell line; 0.02, Day 1
  cell viability (CellTiter-Glo luminescent assay): 31,950
U266 myeloma cell line; 0.02, Day 2
  cell viability (CellTiter-Glo luminescent assay): 47,812
U266 myeloma cell line; 0.02, Day 3
  cell viability (CellTiter-Glo luminescent assay): 66,571
U266 myeloma cell line; 0.02, Day 4
  cell viability (CellTiter-Glo luminescent assay): 115,083
U266 myeloma cell line; 0.02, Day 5
  cell viability (CellTiter-Glo luminescent assay): 152,839
U266 myeloma cell line; 0.2, Day 1
  cell viability (CellTiter-Glo luminescent assay): 32,490
U266 myeloma cell line; 0.2, Day 2
  cell viability (CellTiter-Glo luminescent assay): 47,622
U266 myeloma cell line; 0.2, Day 3
  cell viability (CellTiter-Glo luminescent assay): 62,648
U266 myeloma cell line; 0.2, Day 4
  cell viability (CellTiter-Glo luminescent assay): 106,989
U266 myeloma cell line; 0.2, Day 5
  cell viability (CellTiter-Glo luminescent assay): 132,439
U266 myeloma cell line; 2, Day 1
  cell viability (CellTiter-Glo luminescent assay): 23,680
U266 myeloma cell line; 2, Day 2
  cell viability (CellTiter-Glo luminescent assay): 31,682
U266 myeloma cell line; 2, Day 3
  cell viability (CellTiter-Glo luminescent assay): 33,129
U266 myeloma cell line; 2, Day 4
  cell viability (CellTiter-Glo luminescent assay): 40,656
U266 myeloma cell line; 2, Day 5
  cell viability (CellTiter-Glo luminescent assay): 38,403
